Where two headings read alike, the source gives them in different places.
How the values were obtained:
[1] = biological target: T1, recombinant soluble tissue factor and recombinant human factor VIIa (TF-VIIa) (Homo sapiens, UniProt P08709); experiment: TF-VIIa Assay; format: biochemical
T1 construct: conversion of coagulation factor VII to VIIa by Xa; purchased American Diagnostica, Greenwich Conn; host or cells: factor VIIa purchased; soluble TF made in house in E. coli

[2] = biological target: T2, Trypsin (type 1× from porcine pancreas) (Sus scrofa, UniProt P00761); experiment: Trypsin Assay; format: biochemical; design: % Inhibition Trypsin II @ 1: concentration or dose not given beside the values; conditions: for % Inhibition Trypsin II (30 µM): at 30 µM
T2 construct: Trypsin (5 ug/ml; type 1× from porcine pancreas); purchased Sigma, St. Louis Mo; host or cells: porcine pancreas
T2 sequence (P00761 9-231): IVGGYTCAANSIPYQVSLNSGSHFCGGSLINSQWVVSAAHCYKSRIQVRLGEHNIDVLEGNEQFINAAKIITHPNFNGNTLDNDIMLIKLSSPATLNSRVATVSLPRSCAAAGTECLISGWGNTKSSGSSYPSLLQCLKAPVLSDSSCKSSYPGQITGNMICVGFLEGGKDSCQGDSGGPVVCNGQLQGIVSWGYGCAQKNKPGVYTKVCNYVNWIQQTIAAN

T1 sequence (P08709 213-466 limits assumed): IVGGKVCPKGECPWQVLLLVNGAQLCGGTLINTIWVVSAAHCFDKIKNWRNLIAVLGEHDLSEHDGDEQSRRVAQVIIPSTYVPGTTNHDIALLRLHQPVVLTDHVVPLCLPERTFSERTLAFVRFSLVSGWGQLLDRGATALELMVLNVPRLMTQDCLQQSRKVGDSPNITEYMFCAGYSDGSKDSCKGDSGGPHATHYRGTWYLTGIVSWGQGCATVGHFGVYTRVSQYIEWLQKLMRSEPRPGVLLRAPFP
T1 sequence (P08709 61-212 limits assumed): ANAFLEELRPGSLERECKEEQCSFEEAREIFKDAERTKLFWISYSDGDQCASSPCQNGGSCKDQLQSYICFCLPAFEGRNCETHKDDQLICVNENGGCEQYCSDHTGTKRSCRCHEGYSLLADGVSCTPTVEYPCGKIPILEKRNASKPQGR
T1 sequence (P13726 33-251 partner limits assumed): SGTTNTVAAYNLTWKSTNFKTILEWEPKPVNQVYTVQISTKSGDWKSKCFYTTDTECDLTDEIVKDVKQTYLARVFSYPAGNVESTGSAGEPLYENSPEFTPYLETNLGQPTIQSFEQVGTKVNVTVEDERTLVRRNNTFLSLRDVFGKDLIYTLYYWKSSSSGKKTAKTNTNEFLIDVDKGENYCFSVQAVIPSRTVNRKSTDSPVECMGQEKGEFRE

% Inhibition TF-VIIa (100 νM) ([1]; inhibitor at 100 νM) [%]	% Inhibition Trpysin II (100 νM) ([2]; inhibitor at 100 νM) [%]	% Inhibition Trypsin II @ 1 [2] [% @ 1]	SMILES	other results
0	0	–	O=C(Cn1c(-c2ccccc2)c(Cl)nc(NCCc2ccc(Cl)cc2)c1=O)NCCc1ccncc1 [Example E-0012]	–
0	1	–	O=C(Cn1c(-c2ccc(Cl)cc2)c(Cl)nc(NCCN2CCOCC2)c1=O)NCCc1ccncc1 [Example E-0023]	–
0	0	–	O=C(Cn1c(-c2ccccc2)c(Cl)nc(NCCc2cccc(Cl)c2)c1=O)NCCc1ccncc1 [Example E-0011]	–
–	–	–	O=C(Cn1c(-c2ccc(-c3ccccc3)cc2)c(Cl)nc(NCc2ccccc2)c1=O)NCCc1ccncc1 [Example E-0109]	% Inhibition TF-VIIa (100 νM) [1]: 2%; % Inhibition Trpysin II (100 νM) [2]: 12%
2	6	–	O=C(Cn1c(-c2cccc(Cl)c2)c(Cl)nc(NCCc2ccc(Cl)cc2)c1=O)NCCc1cccnc1 [Example E-0083]	–
–	–	–	Nc1cccc(-c2c(Cl)nc(NC3CCC3)c(=O)n2CC(=O)NCc2ccccc2)c1 [Example 99]	% Inhibition Trypsin II (30 µM) [2]: 7% @ 30
0	3	–	COc1ccc(-c2c(Cl)nc(NCCc3ccccc3)c(=O)n2CC(=O)NCCc2ccncc2)cc1 [Example E-0034]	–
0	1	–	O=C(Cn1c(-c2ccccc2)c(Cl)nc(NCCc2cccnc2)c1=O)NCCc1ccncc1 [Example E-0013]	–
0	0	–	O=C(Cn1c(CCc2ccccc2)c(Cl)nc(NCCN2CCOCC2)c1=O)NCCc1ccncc1 [Example E-0071]	–
0	3	–	O=C(Cn1c(-c2ccc(Cl)cc2)c(Cl)nc(NCCc2ccc(Cl)cc2)c1=O)NCCc1ccncc1 [Example E-0028]	–
0	0	–	O=C(Cn1c(-c2ccccc2)c(Cl)nc(NCCc2ccncc2)c1=O)NCCc1ccncc1 [Example E-0014]	–
–	–	–	N=C(N)c1ccc(CNC(=O)Cn2c(-c3ccccc3)c(Cl)nc(NCc3ccccn3)c2=O)cc1 [1507-24]	% Inhibition Trypsin II (30 µM) [2]: 25% @ 30
–	–	0	N=C(N)c1ccc(CNC(=O)Cn2c(-c3ccccc3)c(Cl)nc(NCc3cccc(F)c3)c2=O)cc1 [1507-42]	–
–	–	–	O=C(Cn1c(-c2ccc(-c3ccccc3)cc2)c(Cl)nc(NCCc2ccc(Cl)cc2)c1=O)NCCc1ccncc1 [Example E-0118]	% Inhibition TF-VIIa (100 νM) [1]: 12%; % Inhibition Trpysin II (100 νM) [2]: 9%
0	0	–	COc1ccc(-c2c(Cl)nc(NCCc3ccc(Cl)cc3)c(=O)n2CC(=O)NCCc2ccncc2)cc1 [Example E-0036]	–
0	0	–	Cc1c(Cl)nc(NCc2ccncc2)c(=O)n1CC(=O)NCCc1ccncc1 [Example E-0008]	–
–	–	6	N=C(N)c1ccc(CNC(=O)Cn2c(-c3ccccc3)c(Cl)nc(NCCc3cccs3)c2=O)cc1 [1507-18]	–
2	1	–	Cc1c(Cl)nc(NCCc2ccncc2)c(=O)n1CC(=O)NCCc1ccncc1 [Example E-0006]	–
0	5	–	COc1ccc(-c2c(Cl)nc(NCc3ccccc3)c(=O)n2CC(=O)NCCc2ccncc2)cc1 [Example E-0033]	–
–	–	11	N=C(N)c1ccc(CNC(=O)Cn2c(-c3ccccc3)c(Cl)nc(NCc3ccc(F)cc3F)c2=O)cc1 [1507-26]	–
–	–	8	N=C(N)c1ccc(CNC(=O)Cn2c(-c3ccccc3)c(Cl)nc(NCc3ccc(Cl)cc3Cl)c2=O)cc1 [1507-22]	–
–	–	0	Cc1ccc(CCNc2nc(Cl)c(-c3ccccc3)n(CC(=O)NCc3ccc(C(=N)N)cc3)c2=O)cc1 [1507-45]	–
–	–	12	COc1cccc(CCNc2nc(Cl)c(-c3ccccc3)n(CC(=O)NCc3ccc(C(=N)N)cc3)c2=O)c1 [1507-12]	–

% Inhibition TF-VIIa (100 νM) ([1]; inhibitor at 100 νM) [%]	% Inhibition Trpysin II (100 νM) ([2]; inhibitor at 100 νM) [%]	% Inhibition Trypsin II @ 1 [2] [% @ 1]	SMILES	other results
–	–	8	COc1ccc(CNc2nc(Cl)c(-c3ccccc3)n(CC(=O)NCc3ccc(C(=N)N)cc3)c2=O)cc1 [1507-13]	–
–	–	9	N=C(N)c1ccc(CNC(=O)Cn2c(-c3ccccc3)c(Cl)nc(NCc3ccc(OC(F)(F)F)cc3)c2=O)cc1 [1507-04]	–
–	–	8	N=C(N)c1ccc(CNC(=O)Cn2c(-c3ccccc3)c(Cl)nc(NCCc3ccc(Br)cc3)c2=O)cc1 [1507-06]	–
–	–	27	COc1ccc(CCNc2nc(Cl)c(-c3ccccc3)n(CC(=O)NCc3ccc(C(=N)N)cc3)c2=O)cc1 [1507-11]	–
–	–	7	N=C(N)c1ccc(CNC(=O)Cn2c(-c3ccccc3)c(Cl)nc(NC(Cc3ccccc3)c3ccccc3)c2=O)cc1 (stereo not drawn) [1507-07]	–
–	–	–	N=C(N)NCC#CCNC(=O)Cn1c(-c2ccccc2)cnc(NCCc2ccccc2)c1=O [Example 36]	% Inhibition Trypsin II (30 µM) [2]: 30%
–	–	2	N=C(N)c1ccc(CNC(=O)Cn2c(-c3ccccc3)c(Cl)nc(NC3CC3)c2=O)cc1 [1507-31]	–
–	–	0	CC(C)CNc1nc(Cl)c(-c2ccccc2)n(CC(=O)NCc2ccc(C(=N)N)cc2)c1=O [1507-32]	–
–	–	78	N=C(N)c1ccc(CNC(=O)Cn2c(-c3cccc(N)c3)c(Cl)nc(NCCc3ccccc3)c2=O)cc1 [Example 86]	–
–	–	–	N=C(N)c1ccc(CNC(=O)Cn2c(-c3ccccc3)c(Cl)nc(NCC3CC3)c2=O)cc1 [Example 1517-43]	% Inhibition Trypsin II (30 µM) ([2]; cells with % sign): 43%
–	–	60	N=C(N)c1ccc(CNC(=O)Cn2c(-c3ccccc3)c(Cl)nc(NC3CCCC3)c2=O)cc1 [1507-25]	–
–	–	11	N=C(N)c1ccc(CNC(=O)Cn2c(-c3ccccc3)c(Cl)nc(NCc3ccccc3C(F)(F)F)c2=O)cc1 [1507-15]	–
–	–	0	C[C@H](Nc1nc(Cl)c(-c2ccccc2)n(CC(=O)NCc2ccc(C(=N)N)cc2)c1=O)c1ccccc1 [1507-34]	–
–	–	–	N=C(N)c1ccc(CNC(=O)Cn2c(-c3ccc4c(c3)OCO4)c(Cl)nc(NCCc3ccc(Cl)cc3)c2=O)cc1 [1471-42]	IC50 ([1]; read-out: IC50 TF-VIIa): 10.5 µM
–	–	0	N=C(N)c1ccc(CNC(=O)Cn2c(-c3ccccc3)c(Cl)nc(NCc3ccc(Br)cc3)c2=O)cc1 [1507-30]	–
–	–	–	CC(C)Nc1nc(Cl)c(-c2cccc([N+](=O)[O-])c2)n(CC(=O)NCc2ccc(C(N)=NO)cc2)c1=O [Example 61]	% Inhibition Trypsin II (30 µM) [2]: 10%
–	–	–	Nc1cccc(-c2c(Cl)nc(NC3CCC3)c(=O)n2CC(=O)NCCc2ccccc2)c1 [Example 89]	% Inhibition Trypsin II (30 µM) [2]: 9% @ 30
0	–	–	O=C(Cn1c(-c2ccccc2)c(Cl)nc(NCCN2CCOCC2)c1=O)NCCc1ccncc1 [Example E-0015]	–
–	–	0	N=C(N)c1ccc(CNC(=O)Cn2c(-c3ccccc3)c(Cl)nc(NCc3cccc(Cl)c3)c2=O)cc1 [1507-38]	–
–	–	–	Cc1c(Cl)nc(NCCc2ccc(Cl)cc2)c(=O)n1CC(=O)NCc1ccc(C(=N)N)cc1 [1471-2]	% Inhibition Trypsin II (30 µM) [2]: 0%
–	–	1	N=C(N)c1ccc(CNC(=O)Cn2c(-c3ccccc3)c(Cl)nc(NCc3cccc4ccccc34)c2=O)cc1 [1507-28]	–
–	12	–	COc1ccc(-c2c(Cl)nc(NCCc3ccccc3)c(=O)n2CC(=O)NCCc2ccncc2)cc1 [Example E-0100]	–
